Test results from patent US6808904B2, “Herbicide-tolerant protox genes produced by DNA shuffling” (priority 1994, dated 2004).

Columns and labels:
[1] = molecular target: T1, plant protox mutants (Arabidopsis protox-1) in SASX38 (Arabidopsis thaliana, UniProt P55826, N425S/T56K/Y426L); experiment: Bacterial cross-tolerance testing of resistant mutant plasmids in SASX38, Arabidopsis protox-1 mutants; assay type: cell-based; set-up: key to Cross tolerance, AraC-1Val / Cross tolerance, AraC-2Cys / Cross tolerance, AraC-1Thr / Cross tolerance, AraC-3Thr / Cross tolerance, AraC-2Ile / Cross tolerance, AraC-2Cys + AraC425Ser: + = 10× or more tolerant than WT; ++ = 100× or more tolerant than WT; − = no cross tolerance; conditions: mutant AraC-2Leu + AraC425Ser
T1 construct: contains only 17 amino acids of the putative chloroplast transit peptide; expressed in transfected cells; host or cells: E. coli SASX38 (hemG mutant)
Protocol: (§1) Resistant mutant plasmids, originally identified based on resistance against a single protox inhibitory herbicide, were tested against a spectrum of other protox inhibiting compounds. For this test, the SASX38 strain containing the wild-type plasmid is plated on a range of concentrations of each compound to determine the lethal concentration for each one. Resistant mutant plasmids in SASX38 are plated and scored for the ability to survive on a concentration of each compound at least 10 fold higher than the concentration that is lethal to the SASX38 strain containing the wild-type plasmid.

[2] = molecular target: T2, plant protox mutants (Arabidopsis protox-1) in SASX38 (Arabidopsis thaliana, UniProt P55826, T56K/Y426I); experiment: as above; assay type: cell-based; set-up: key to Cross tolerance, AraC-1Val / Cross tolerance, AraC-2Cys / Cross tolerance, AraC-1Thr / Cross tolerance, AraC-3Thr / Cross tolerance, AraC-2Ile / Cross tolerance, AraC-2Cys + AraC425Ser: + = 10× or more tolerant than WT; ++ = 100× or more tolerant than WT; − = no cross tolerance; conditions: mutant AraC-2Ile
T2 construct: contains only 17 amino acids of the putative chloroplast transit peptide; expressed in transfected cells; host or cells: E. coli SASX38 (hemG mutant)
Protocol: as §1

[3] = molecular target: T3, plant protox mutants (MzC-1Val, maize protox-1) in SASX38 (Arabidopsis thaliana, UniProt P55826, A220V/A252T/A259N/A262P/A292S/A82G/A83V/D204A/D323E/D487E/D93A/DEL80-81/E103P/E263P/E288N/E311D/E351S/E499D/F107Y/F178L/F250I/F483L/G171P/G277A/G306S/G313K/G344N/G441S/H340Y/I100T/I174L/I370V/I421V/I485L/I71T/I87L/INS101VE/K237R/K257S/K359R/K388Q/K457N/K465V/K78R/K92R/L137F/L159P/L310S/L325V/L345I/L360F/L436V/L86V/M122V/N105E/N149E/N241T/N258K/N316V/N355D/N459T/N85D/P266A/P418D/P458S/P84G/Q240E/Q272K/R284A/R293S/S186P/S291T/S305T/S312D/S330A/S352D/S369T/S430A/S439T/S460A/S491A/S492A/S495R/S496G/T141N/T160A/T318E/T379K/T397S/T461V/T488A/T494D/T56K/V126A/V334I/V337I/V95P); experiment: Bacterial cross-tolerance testing of resistant mutant plasmids in SASX38, maize protox-1 mutant; assay type: cell-based; set-up: key: + = 10× or more tolerant than WT; ++ = 100× or more tolerant than WT; − = no cross tolerance; conditions: mutant MzC-1Val vs WT plasmid in SASX38
T3 construct: expressed in transfected cells; host or cells: E. coli SASX38 (hemG mutant)
Protocol: as §1

[4] = tested on: Arabidopsis line expressing AraC-2Ile+AraC305Leu; experiment: Cross tolerance in a seed germination assay, homozygous Arabidopsis line with AraC-2Ile+AraC305Leu; assay type: in vivo, Arabidopsis thaliana; conditions: AraC-2Ile+AraC305Leu line vs wt
Protocol: Using the procedure described above, an Arabidopsis protox-1 cDNA containing a TAC to ATG (Tyrosine to Methionine) change at nucleotides 1306-1308 in the protox-1 sequence (SEQ ID NO:1) was fused to the native protox-1 promoter fragment and transformed into Arabidopsis thaliana. […] Seed from the vacuum infiltrated plants was collected and plated on a range (10.0 nM-1.0 uM) of a protox inhibitory aryluracil herbicide of formula XVII. Multiple experiments with wild type Arabidopsis have shown that a 10.0 nM concentration of this compound is sufficient to prevent normal seedling germination. Transgenic seeds expressing the AraC-2Met altered enzyme fused to the native protox-1 promoter produced normal Arabidopsis seedlings at herbicide concentrations up to 500 nM, indicating at least 50-fold higher herbicide tolerance when compared to wild-type Arabidopsis. This promoter/altered protox enzyme fusion therefore functions as an effective selectable marker for plant transformation. Several of the plants that germinated on 100.0 nM of protox-inhibiting herbicide were transplanted to soil, grown 2-3 weeks, and tested in a spray assay with various concentrations of the protox-inhibiting herbicide. When compared to empty vector control transformants, the AraPT1Pro/AraC-2Met transgenics were >10-fold more tolerant to the herbicide spray.
Using the procedure described above, an Arabidopsis protox-1 cDNA containing both a TAC to ATC (tyrosine to isoleucine) change at nucleotides 1306-1308 and a TCA to TTA (serine to leucine) change at nucleotides 945-947 in the protox-1 sequence (SEQ ID NO:1) was fused to the native protox-1 promoter fragment and transformed into Arabidopsis thaliana.

T2 sequence (P55826 41-537 T56K/Y426I): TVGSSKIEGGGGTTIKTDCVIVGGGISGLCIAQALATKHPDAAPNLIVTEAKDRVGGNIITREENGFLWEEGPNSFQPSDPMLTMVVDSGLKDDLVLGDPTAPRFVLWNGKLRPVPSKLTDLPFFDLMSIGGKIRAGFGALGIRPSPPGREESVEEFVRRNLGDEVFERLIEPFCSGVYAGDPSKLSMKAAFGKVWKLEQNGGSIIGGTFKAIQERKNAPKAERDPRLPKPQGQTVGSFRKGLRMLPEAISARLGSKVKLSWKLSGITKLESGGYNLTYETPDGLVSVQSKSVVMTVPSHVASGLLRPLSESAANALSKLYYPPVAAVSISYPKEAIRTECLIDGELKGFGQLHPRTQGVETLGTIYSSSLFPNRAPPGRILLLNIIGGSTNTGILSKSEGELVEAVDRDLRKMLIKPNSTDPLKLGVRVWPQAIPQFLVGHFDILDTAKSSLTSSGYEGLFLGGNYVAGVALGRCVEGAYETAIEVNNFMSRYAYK
T1 sequence (P55826 41-537 T56K/N425S/Y426L): as the sequence (P55826 41-537 T56K/Y426I) above, with N385S, I386L counted along it
T3 sequence (P55826 other isoform, or with tags, fused parts or gaps with the stated changes): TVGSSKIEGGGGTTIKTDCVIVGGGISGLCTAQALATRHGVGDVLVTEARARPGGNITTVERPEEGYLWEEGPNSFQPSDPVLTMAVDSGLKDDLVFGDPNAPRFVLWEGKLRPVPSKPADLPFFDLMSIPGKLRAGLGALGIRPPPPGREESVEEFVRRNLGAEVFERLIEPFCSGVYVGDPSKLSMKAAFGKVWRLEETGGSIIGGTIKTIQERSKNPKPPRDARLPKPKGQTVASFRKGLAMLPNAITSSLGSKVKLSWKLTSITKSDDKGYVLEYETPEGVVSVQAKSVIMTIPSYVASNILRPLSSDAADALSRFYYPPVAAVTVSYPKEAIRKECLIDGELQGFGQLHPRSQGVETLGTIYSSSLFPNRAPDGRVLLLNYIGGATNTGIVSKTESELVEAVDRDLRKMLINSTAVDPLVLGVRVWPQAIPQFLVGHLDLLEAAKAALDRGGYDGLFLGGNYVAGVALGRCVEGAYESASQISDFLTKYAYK

Row | SMILES | Cross tolerance, AraC-2Leu + AraC425Ser [1] | Cross tolerance, AraC-2Ile [2] | Cross tolerance, MzC-1Val [3] | Tolerance [4]
1 | CCCCCOC(=O)COc1cc(N2C(=O)C3=C(CCCC3)C2=O)c(F)cc1Cl [XIV] | ++ (++ = 100× or more tolerant than WT) | ++ (++ = 100× or more tolerant than WT) | + (+ = 10× or more tolerant than WT) | + (+ ≧ 10× more tolerant than wt)
2 | CC(C)OC(=O)c1cc(-n2c(=O)cc(C(F)(F)F)n(C)c2=O)ccc1Cl [XI] | ++ (++ = 100× or more tolerant than WT) | ++ (++ = 100× or more tolerant than WT) | + (+ = 10× or more tolerant than WT) | ++ (++ ≧ 100× more tolerant than wt)
3 | CCOC(=O)COC(=O)c1cc(Oc2ccc(C(F)(F)F)cc2Cl)ccc1[N+](=O)[O-] [IV] | + (+ = 10× or more tolerant than WT) | − | − | ± (± ≦ 10× more tolerant than wt)
4 | COC(=O)CSc1cc(N=c2sc(=O)n3n2CCCC3)c(F)cc1Cl [VIIa] | ++ (++ = 100× or more tolerant than WT) | ++ (++ = 100× or more tolerant than WT) | + (+ = 10× or more tolerant than WT) | ++ (++ ≧ 100× more tolerant than wt)
